Test results published in patent US10689401B2, “C5-C6-oxacyclic fused iminothiazine dioxide compounds bearing an ether linker as BACE inhibitors, compositions, and their use” (Merck Sharp & Dohme Corp., priority 2016, dated 2020).

Tests used:
[1] = target: Recombinant human soluble BACE1 catalytic domain (Homo sapiens (Human), UniProt P56817); experiment: BACE1 HTRF FRET Assay; format: biochemical; conditions: for Ki: Ki calculated from IC50 using the Cheng-Prusoff equation, QSY7-APPswe-Eu substrate, pH 5.0, read-out: BACE-1 Ki
Chain of Recombinant human soluble BACE1 catalytic domain (P56817 75-416): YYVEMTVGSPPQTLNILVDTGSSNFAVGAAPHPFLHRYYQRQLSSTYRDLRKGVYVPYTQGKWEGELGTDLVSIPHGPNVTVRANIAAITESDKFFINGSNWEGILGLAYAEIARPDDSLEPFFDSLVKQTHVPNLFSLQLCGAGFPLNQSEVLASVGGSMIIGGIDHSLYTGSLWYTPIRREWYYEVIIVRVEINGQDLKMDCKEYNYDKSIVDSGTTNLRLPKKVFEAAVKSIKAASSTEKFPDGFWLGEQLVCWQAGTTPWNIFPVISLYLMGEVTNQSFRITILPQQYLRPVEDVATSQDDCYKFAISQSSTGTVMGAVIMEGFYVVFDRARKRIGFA
Description: Reagents: Na^+-Acetate pH 5.0; 1% Brij-35; Glycerol; Dimethyl Sulfoxide (DMSO); Recombinant human soluble BACE1 catalytic domain (>95% pure); APP Swedish mutant peptide substrate (QSY7-APP^swe-Eu): QSY7-EISEVNLDAEFC-Europium-amide.
A homogeneous time-resolved FRET assay can be used to determine IC50 values for inhibitors of the soluble human BACE1 catalytic domain. This assay monitors the increase of 620 nm fluorescence that resulted from BACE1 cleavage of an APPswedish APP^swe mutant peptide FRET substrate (QSY7-EISEVNLDAEFC-Europium-amide). This substrate contains an N-terminal QSY7 moiety that serves as a quencher of the C-terminal Europium fluorophore (620 nm Em). In the absence of enzyme activity, 620 nm fluorescence is low in the assay and increased linearly over 3 hours in the presence of uninhibited BACE1 enzyme. Inhibition of BACE1 cleavage of the QSY7-APP^swe-Eu substrate by inhibitors is manifested as a suppression of 620 nm fluorescence.
Varying concentrations of inhibitors at 3× the final desired concentration in a volume of 10 ul are preincubated with purified human BACE1 catalytic domain (3 nM in 10 μl) for 30 minutes at 30° C. in reaction buffer containing 20 mM Na-Acetate pH 5.0, 10% glycerol, 0.1% Brij-35 and 7.5% DSMO. Reactions are initiated by addition of 10 μl of 600 nM QSY7-APP^swe-Eu substrate (200 nM final) to give a final reaction volume of 30 μl in a 384 well Nunc HTRF plate. The reactions are incubated at 30° C. for 1.5 hours. The 620 nm fluorescence is then read on a Rubystar HTRF plate reader (BMG Labtechnologies) using a 50 millisecond delay followed by a 400 millisecond acquisition time window. Inhibitor IC50 values are derived from non-linear regression analysis of concentration response curves. Ki values are then calculated from IC50 values using the Cheng-Prusoff equation using a previously determined […] of 8 μM for the QSY7-APP^swe-Eu substrate at BACE1.

[2] = target: purified human autoBACE-2 (Homo sapiens (Human), UniProt Q9Y5Z0); experiment: BACE-2 Assay (BACE-HTRF assay); format: biochemical; conditions: Ki calculated from IC50 using the Cheng-Prusoff equation; QSY7-EISEVNLDAEFC-Eu-amide substrate, pH 5.0
Chain of purified human autoBACE-2 (Q9Y5Z0 63-518): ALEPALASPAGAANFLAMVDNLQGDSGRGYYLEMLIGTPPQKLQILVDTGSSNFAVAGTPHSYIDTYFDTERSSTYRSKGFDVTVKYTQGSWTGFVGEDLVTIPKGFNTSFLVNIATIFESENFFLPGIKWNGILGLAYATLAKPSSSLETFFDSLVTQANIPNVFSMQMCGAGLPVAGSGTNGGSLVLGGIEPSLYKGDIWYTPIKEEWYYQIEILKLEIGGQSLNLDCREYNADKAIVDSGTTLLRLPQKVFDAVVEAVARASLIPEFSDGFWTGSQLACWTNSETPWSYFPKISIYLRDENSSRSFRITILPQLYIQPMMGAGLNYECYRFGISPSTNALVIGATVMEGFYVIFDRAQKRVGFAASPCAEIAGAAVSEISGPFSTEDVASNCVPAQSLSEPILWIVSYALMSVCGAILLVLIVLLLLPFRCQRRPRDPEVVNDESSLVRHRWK
Experimental: Inhibitor IC50s at purified human autoBACE-2 are determined in a time-resolved endpoint proteolysis assay that measures hydrolysis of the QSY7-EISEVNLDAEFC-Eu-amide FRET peptide substrate (BACE-HTRF assay). BACE-mediated hydrolysis of this peptide results in an increase in relative fluorescence (RFU) at 620 nm after excitation with 320 nm light. Inhibitor compounds, prepared at 3× the desired final concentration in 1×BACE assay buffer (20 mM sodium acetate pH 5.0, 10% glycerol, 0.1% Brij-35) supplemented with 7.5% DMSO are preincubated with an equal volume of autoBACE-2 enzyme diluted in 1×BACE assay buffer (final enzyme concentration 1 nM) in black 384-well NUNC plates for 30 minutes at 30° C. […] DMSO is present at 5% final concentration in the assay. Following laser excitation of sample wells at 320 nm, the fluorescence signal at 620 nm is collected for 400 ms following a 50 μs delay on a RUBYstar HTRF plate reader (BMG Labtechnologies). Raw RFU data is normalized to maximum (1.0 nM BACE/DMSO) and minimum (no enzyme/DMSO) RFU values. IC50s are determined by nonlinear regression analysis (sigmoidal dose response, variable slope) of percent inhibition data with minimum and maximum values set to 0 and 100 percent respectively. Similar IC50s are obtained when using raw RFU data. The Ki values are calculated from the IC50 using the Cheng-Prusoff equation.

Structure (SMILES) | Ki [1] [nM] | Ki [2] [nM] | inhibition at 10 µM ([1]; @10 μM, read-out: BACE-1 inhibition (printed in BACE-1 Ki column)) [%]
CC1(C)C[C@@H]2[C@](c3cc(OC4CCC4)ccc3F)(CO1)NC(=N)C(C)(C)S2(=O)=O [Example 24] | 183 | 109 | –
C[C@H]1C[C@@H]2[C@](c3cc(OCC4CC4)ccc3F)(CO1)NC(=N)C(C)(C)S2(=O)=O [Example 9, (4aS,7S,8aR)-4a-(5-(cyclopropylmethoxy)-2-fluorophenyl)-3-imino-2,2,7-trimethyloctahydropyrano[4,3-b][1,4]thiazine 1,1-dioxide] | 94.2 | 11.4 | –
CC(C)COc1ccc(F)c([C@]23COC(C)(C)C[C@H]2S(=O)(=O)C(C)(C)C(=N)N3)c1 [Example 23, (4aS,8aR)-4a-[2-fluoro-5-(2-methylpropoxy)phenyl]-2,2,7,7-tetramethyltetrahydro-2H,5H-pyrano[4,3-b][1,4]thiazin-3(4H)-imine 1,1-dioxide] | 172 | 66.7 | –
C[C@H]1C[C@@H]2[C@](c3cc(Br)ccc3F)(CO1)NC(=N)C(C)(C)S2(=O)=O [Example 3, (4aS,7S,8aR)-4a-(5-bromo-2-fluorophenyl)-3-imino-2,2,7 trimethyloctahydropyrano[4,3-b][1,4]thiazine 1,1-dioxide] | 1210 | 399 | –
CC1(C)C[C@@H]2[C@](c3cc(OCC4CC4)ccc3F)(CO1)NC(=N)C(C)(C)S2(=O)=O [Example 22, (4aS,8aR)-4a-[5-(cyclopropylmethoxy)-2-fluorophenyl]-2,2,7,7-tetramethyltetrahydro-2H,5H-pyrano[4,3-b][1,4]thiazin-3(4H)-imine 1,1-dioxide] | 120 | 35.6 | –

Next, values leading:

Ki [1] [nM] | Ki [2] [nM] | inhibition at 10 µM ([1]; @10 μM, read-out: BACE-1 inhibition (printed in BACE-1 Ki column)) [%] | Structure (SMILES)
184 | 96.3 | – | COc1ccc(F)c([C@]23CO[C@@H](c4ccc(F)cc4)C[C@H]2S(=O)(=O)C(C)(C)C(=N)N3)c1 [Example 12, (4aS,7R,8aR)-4a-(2-fluoro-5-methoxyphenyl)-7-(4-fluorophenyl)-3-imino-2,2-dimethyloctahydropyrano[4,3-b][1,4]thiazine 1,1-dioxide]
17.9 | 19.8 | – | CC1(C)C(=N)N[C@@]2(c3cc(Oc4cc(C#N)ccn4)ccc3F)CO[C@@H](c3ccc(F)cc3)C[C@H]2S1(=O)=O [Example 15, 2-(4-fluoro-3-((4aS,7R,8aR)-7-(4-fluorophenyl)-3-imino-2,2-dimethyl-1,1-dioxidooctahydropyrano[4,3-b][1,4]thiazin-4a-yl)phenoxy)isonicotinonitrile]
115 | 11.7 | – | CC1(C)C(=N)N[C@@]2(c3cc(OCC4CC4)ccc3F)CO[C@@H](c3ccc(F)cc3)C[C@H]2S1(=O)=O [Example 13, (4aS,7R,8aR)-4a-(5-(cyclopropylmethoxy)-2-fluorophenyl)-7-(4-fluorophenyl)-3-imino-2,2-dimethyloctahydropyrano[4,3-b][1,4]thiazine 1,1-dioxide]
4480 | 1180 | – | C[C@@H]1C[C@@H]2[C@](c3cc(OCC4CC4)ccc3F)(CO1)NC(=N)C(C)(C)S2(=O)=O [Example 8, (4aS,7R,8aR)-4a-(5-(cyclopropylmethoxy)-2-fluorophenyl)-3-imino-2,2,7-trimethyloctahydropyrano[4,3-b][1,4]thiazine 1,1-dioxide]
33.8 | 65.2 | – | CC1(C)C[C@@H]2[C@](c3cc(Oc4cc(C#N)ccn4)ccc3F)(CO1)NC(=N)C(C)(C)S2(=O)=O [Example 19]
– | 8400 | 27 | COc1ccc(F)c([C@]23CO[C@H](C)C[C@H]2S(=O)(=O)C(C)(C)C(=N)N3)c1 [Example 11, (4aS,7R,8aR)-4a-(2-fluoro-5-methoxyphenyl)-3-imino-2,2,7-trimethyloctahydropyrano[4,3-b][1,4]thiazine 1,1-dioxide]
53.6 | 28.9 | – | C[C@H]1C[C@@H]2[C@](c3cc(Oc4ncc(F)cc4F)ccc3F)(CO1)NC(=N)C(C)(C)S2(=O)=O [Example 7, (4aS,7S,8aR)-4a-(5-((3,5-difluoropyridin-2-yl)oxy)-2-fluorophenyl)-3-imino-2,2,7-trimethyloctahydropyrano[4,3-b][1,4]thiazine 1,1-dioxide]
